Earlier results on 1 compound are cited in patent US20050287205A1, “Dietary supplement compositions” (priority 2004, published 2005).

The subject of data set [1] is renin. Conditions: spontaneously hypertensive rats.
Data set [2] concerns liver and skeletal muscle glycogen. Conditions: acetic acid administration to mammals; promotes recovery from fatigue.
For data set [3] the following is noted: with water, ethyl alcohol, and diethyl ether.
The subject of data set [4] is spontaneously hypertensive rats.

As for `CC(=O)O` [acetic acid], the renin activity entry in data set [1] was “significantly reduces”. In addition, the “glycogen repletion in liver and skeletal muscle” value in data set [2] is “enhances glycogen repletion in liver and skeletal muscle”. In addition, the miscibility result in data set [3] is “miscible (mixable) in all proportions”. Also, in data set [4], the blood pressure entry is “significantly reduces”.
